Measurements as given in US12655173B2, “Hybrid amide derivatives of amphotericin B” (priority 2020, dated 2026).
Values after ≈ are worked out from the molar mass of the structure shown.

Experiments:
[1] = tested on: Candida albicans; assay: MIC against yeasts; format: cell-based; details: 15 isolates, Table 3A
[2] = tested on: Candida glabrata; assay: MIC against yeasts; format: cell-based; details: Nakaseomyces glabratus; 5 isolates; Table 3A
[3] = tested on: Scedosporium apiospermum; assay: MIC against yeasts (Table 3A); format: cell-based; details: 2 isolates
[4] = tested on: A. funigatus (CEA10 strain); assay: Efficacy study against pulmonary aspergillosis in neutropenic mice: survival; format: in vivo; details: 15 mg/kg QD IP for 7 days, monitored until day 14
From the text: Efficacy study (FIG. 22): Healthy mice were divided as 10 mice/group. […] Animals were infected with A. funigatus (CEA10 strain) (intranasal) on day 0. […] Survivability of the animals were monitored during the course of the study.

SMILES: C[C@@H]1[C@H](O)[C@@H](C)/C=C/C=C/C=C/C=C/C=C/C=C/C=C/[C@H](OC2O[C@H](C)[C@@H](O)[C@H](N)[C@@H]2O)C[C@@H]2O[C@](O)(C[C@@H](O)C[C@@H](O)[C@H](O)CC[C@@H](O)C[C@@H](O)CC(=O)O[C@H]1C)C[C@H](O)[C@H]2C(=O)O (stereo partly shown) [AmB, Amphotericin B]
- MIC [1]: 0.61 µM (≈ 0.564 µg/mL)
- MIC [2]: 1.4 µM (≈ 1.29 µg/mL)
- MIC [3]: > 16 µM
- Survival [4]: 80%
